A short description of this data set: In vitro skin permeation profiles (permeation cell). The format is in vitro ADME, human. The method, then: Comparison In Vitro Skin Permeation Profiles of Amanidine Prodrugs • System: in-vitro permeation cell (9 ml acceptor volume/1.539 cm^2 diffusion area, 32° C.) • Acceptor medium: phosphate buffer pH 5.5+0.1% NaN3 according to DAB 10 • Active ingredient: benzamidine, benzamidoxime (from Ex. 1) • Skin type: human full skin, ID 899 (belly person) • Vehicle: suspension in olive oil (2% by weight, 50 mg suspension per cell), applied to a circular nonwoven disk made of synthetic wool ([…] type I/20) and occlusively covered with a PSA film (silicone adhesive) as “over-plaster”.

As for `N=C(N)c1ccccc1` [Benzamidine, benzamidine, reference compound], the permeated amount was determined as 0 (0 h, human full skin, 2% by weight suspension in olive oil, acceptor phosphate buffer pH 5.5, 32° C.); 2.24 (8 h, human full skin, 2% by weight suspension in olive oil, acceptor phosphate buffer pH 5.5, 32° C.); 13.7 (24 h, human full skin, 2% by weight suspension in olive oil, acceptor phosphate buffer pH 5.5, 32° C.); 21.2 (32 h, human full skin, 2% by weight suspension in olive oil, acceptor phosphate buffer pH 5.5, 32° C.); 41.3 (48 h, human full skin, 2% by weight suspension in olive oil, acceptor phosphate buffer pH 5.5, 32° C.).

For the molecule `NC(=NO)c1ccccc1` [Benzamidinoxime, Benzamidoxime], the “comparison of the permeated amounts of benzamidine and benzamidoxime” value is “advantage of the benzamidoxime being clearly visible”. The molecule also came in with a permeated amount (female, human, 0 h, 2 % by weight, pH 5.5) of 0. Moreover, the permeated amount (female, human, 8 h, 2 % by weight, pH 5.5) worked out at 50.2. The permeated amount (female, human, 24 h, 2 % by weight, pH 5.5) is 235. In addition, the permeated amount (female, human, 32 h, 2 % by weight, pH 5.5) stood at 315. The molecule also came in with a permeated amount (female, human, 48 h, 2 % by weight, pH 5.5) of 403.
